# Legend:
# [1] = tested on: sedge, umbrella; assay: Test B flooded paddy test; format: in vivo, Cyperus difformis; conditions: 250 g ai/ha, Flood, 13 days, 0 to 100 scale (0 no effect, 100 complete control)
# In short: (§1)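 Each species was raised to the 2-leaf stage. At treatment, each pot received floodwater 3 cm deep, with the chemical delivered into the water. Greenhouse holding followed for 13 days, then percent control was estimated visually versus untreated pots.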
# [2] = tested on: kochia; assay: Test A postemergence; format: in vivo, Bassia scoparia
# In short: (§2)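 Plants were grown in loam and sand and treated preemergence or postemergence (one- to two-leaf stage, 2–10 cm) with compound in solvent plus surfactant. Response was scored against untreated controls after 10 greenhouse days, where 0 means no effect and 100 complete control.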
# [3] = tested on: goosegrass; assay: Test A postemergence; format: in vivo, Eleusine indica
# In short: as §2
# [4] = tested on: galium; assay: Test A postemergence; format: in vivo, Galium aparine
# In short: as §2
# [5] = tested on: ryegrass, Italian; assay: Test A postemergence; format: in vivo, Lolium multiflorum
# In short: as §2
# [6] = tested on: corn; assay: Test A preemergence; format: in vivo, Zea mays
# Description: (§3) Seeds of plant species selected from barnyardgrass (Echinochloa crusgalli), blackgrass (Alopecurus myosuroides), corn (Zea mays), foxtail, giant (giant foxtail, Setaria faberi), goosegrass (Eleusine indica), kochia (Bassia scoparia), oat, wild (wild oat, Avena fatua), pigweed, palmer (palmer amaranth, palmer pigweed, Amaranthus palmeri), Pigweed, Redroot (redroot pigweed, Amaranthus retroflexus), ragweed (common ragweed, Ambrosia artemisiifolia), ryegrass, Italian (italian ryegrass, Lolium multiflorum), soybean (Glycine max), and wheat (Triticum aestivum) were planted into a blend of loam soil and sand and treated preemergence with a directed soil spray using test chemicals formulated in a non-phytotoxic solvent mixture which included a surfactant. At the same time, plants selected from these crops and weed species and also galium (catchweed bedstraw, Galium aparine) and horseweed (Erigeron canadensis) were planted in pots containing the same blend of loam soil and sand and treated with postemergence applications of test chemicals formulated in the same manner. Plants ranged in height from 2 to 10 cm and were in the one- to two-leaf stage for the postemergence treatment. Treated plants and untreated controls were maintained in a greenhouse for 10 days, after which time all treated plants were compared to untreated controls and visually evaluated for injury. Plant response ratings, summarized in Table A, are based on a 0 to 100 scale where 0 is no effect and 100 is complete control. A dash (-) response means no test result.
# [7] = tested on: wheat; assay: Test A postemergence; format: in vivo, Triticum aestivum
# Description: as §3
# [8] = tested on: pigweed, palmer; assay: Test A preemergence; format: in vivo, Amaranthus palmeri
# In short: as §2
# [9] = tested on: pigweed, palmer; assay: Test A postemergence; format: in vivo, Amaranthus palmeri
# In short: as §2
# [10] = tested on: ragweed; assay: Test A postemergence; format: in vivo, Ambrosia artemisiifolia
# In short: as §2
# [11] = tested on: blackgrass; assay: Test A postemergence; format: in vivo, Alopecurus myosuroides
# In short: as §2
# [12] = tested on: barnyardgrass; assay: Test B flooded paddy test; format: in vivo, Echinochloa crus-galli; conditions: 250 g ai/ha, Flood, 13 days, 0 to 100 scale (0 no effect, 100 complete control)
# In short: as §1
# [13] = tested on: ryegrass, Italian; assay: Test A preemergence; format: in vivo, Lolium multiflorum
# In short: as §2
# [14] = tested on: goosegrass; assay: Test A preemergence; format: in vivo, Eleusine indica
# In short: as §2
# [15] = tested on: oat, wild; assay: Test A postemergence; format: in vivo, Avena fatua
# Description: as §3
# [16] = tested on: kochia; assay: Test A preemergence; format: in vivo, Bassia scoparia
# In short: as §2
# [17] = tested on: ducksalad; assay: Test B flooded paddy test; format: in vivo, Heteranthera limosa; conditions: 250 g ai/ha, Flood, 13 days, 0 to 100 scale (0 no effect, 100 complete control)
# In short: as §1
# [18] = tested on: soybean; assay: Test A postemergence; format: in vivo, Glycine max
# Description: as §3
# [19] = tested on: wheat; assay: Test A preemergence; format: in vivo, Triticum aestivum
# Description: as §3
# [20] = tested on: oat, wild; assay: Test A preemergence; format: in vivo, Avena fatua
# Description: as §3
# [21] = tested on: blackgrass; assay: Test A preemergence; format: in vivo, Alopecurus myosuroides
# In short: as §2
# [22] = tested on: rice; assay: Test B flooded paddy test; format: in vivo, Oryza sativa; conditions: 250 g ai/ha, Flood, 13 days, 0 to 100 scale (0 no effect, 100 complete control)
# In short: as §1
# [23] = tested on: foxtail, giant; assay: Test A preemergence; format: in vivo, Setaria faberi
# In short: as §2
# [24] = tested on: foxtail, giant; assay: Test A postemergence; format: in vivo, Setaria faberi
# In short: as §2
# [25] = tested on: soybean; assay: Test A preemergence; format: in vivo, Glycine max
# Description: as §3
# [26] = tested on: ragweed; assay: Test A preemergence; format: in vivo, Ambrosia artemisiifolia
# In short: as §2
# [27] = tested on: corn; assay: Test A postemergence; format: in vivo, Zea mays
# Description: as §3
# [28] = 125 g ai/ha, postemergence, 10 days, visual injury, 0 to 100 scale (0 no effect, 100 complete control)
# [29] = 500 g ai/ha, Postemergence, 0 to 100 scale
# [30] = 125 g ai/ha, visual injury after 10 days, 0 to 100 scale, 0 is no effect, 100 is complete control
# [31] = 500 g ai/ha, 0 to 100 scale (0 no effect, 100 complete control), 10 days
structure (smiles),measurement,setting,value
CC1CN(C(=O)c2cccc(-n3cncn3)c2)c2cccc(C3CC3)c2O1 (stereo not drawn) [Compound 42],"Plant response rating, Sedge, Umbrella",[1],0
same,"Plant response rating, Kochia",[2]; [28],0
same,"Plant response rating, Kochia",[2]; [29],80
same,"Plant response rating, Goosegrass",[3]; [28],20
same,"Plant response rating, Goosegrass",[3]; [29],30
same,"Plant response rating, Galium",[4]; [28],50
same,"Plant response rating, Galium",[4]; [29],70
same,"Plant response rating, Ryegrass, Italian",[5]; [28],0
same,"Plant response rating, Ryegrass, Italian",[5]; [29],50
same,"Plant response rating, Corn",[6]; [30],0
same,"Plant response rating, Corn",[6]; [31],0
same,"Plant response rating, Wheat",[7]; [28],0
same,"Plant response rating, Wheat",[7]; [29],20
same,"Plant response rating, Pigweed, Palmer",[8]; [30],10
same,"Plant response rating, Pigweed, Palmer",[8]; [31],80
same,"Plant response rating, Pigweed, Palmer",[9]; [28],30
same,"Plant response rating, Pigweed, Palmer",[9]; [29],10
same,"Plant response rating, Ragweed",[10]; [28],0
same,"Plant response rating, Ragweed",[10]; [29],0
same,"Plant response rating, Blackgrass",[11]; [28],0
same,"Plant response rating, Blackgrass",[11]; [29],40
same,"Plant response rating, Barnyardgrass",[12],0
same,"Plant response rating, Ryegrass, Italian",[13]; [30],50
same,"Plant response rating, Ryegrass, Italian",[13]; [31],100
same,"Plant response rating, Goosegrass",[14]; [30],30
same,"Plant response rating, Goosegrass",[14]; [31],90
same,"Plant response rating, Oat, Wild",[15]; [28],0
same,"Plant response rating, Oat, Wild",[15]; [29],10
same,"Plant response rating, Kochia",[16]; [30],0
same,"Plant response rating, Kochia",[16]; [31],20
same,"Plant response rating, Ducksalad",[17],0
same,"Plant response rating, Soybean",[18]; [28],70
same,"Plant response rating, Soybean",[18]; [29],90
same,"Plant response rating, Wheat",[19]; [30],0
same,"Plant response rating, Wheat",[19]; [31],20
same,"Plant response rating, Oat, Wild",[20]; [30],0
same,"Plant response rating, Oat, Wild",[20]; [31],50
same,"Plant response rating, Blackgrass",[21]; [30],30
same,"Plant response rating, Blackgrass",[21]; [31],60
same,"Plant response rating, Rice",[22],0
same,"Plant response rating, Foxtail, Giant",[23]; [30],10
same,"Plant response rating, Foxtail, Giant",[23]; [31],90
same,"Plant response rating, Foxtail, Giant",[24]; [28],20
same,"Plant response rating, Foxtail, Giant",[24]; [29],70
same,"Plant response rating, Soybean",[25]; [30],0
same,"Plant response rating, Soybean",[25]; [31],0
same,"Plant response rating, Ragweed",[26]; [30],0
same,"Plant response rating, Ragweed",[26]; [31],0
same,"Plant response rating, Corn",[27]; [28],10
same,"Plant response rating, Corn",[27]; [29],40
CCc1cccc2c1OC(C)CN2C(=O)c1cccc(-n2cncn2)c1 (stereo not drawn) [Compound 43],"Plant response rating, Sedge, Umbrella",[1],0
same,"Plant response rating, Kochia",[2]; [28],10
same,"Plant response rating, Kochia",[2]; [29],30
same,"Plant response rating, Goosegrass",[3]; [28],0
same,"Plant response rating, Goosegrass",[3]; [29],40
same,"Plant response rating, Galium",[4]; [28],30
same,"Plant response rating, Galium",[4]; [29],60
same,"Plant response rating, Ryegrass, Italian",[5]; [28],30
same,"Plant response rating, Ryegrass, Italian",[5]; [29],60
same,"Plant response rating, Corn",[6]; [30],10
same,"Plant response rating, Corn",[6]; [31],20
same,"Plant response rating, Wheat",[7]; [28],10
same,"Plant response rating, Wheat",[7]; [29],30
same,"Plant response rating, Pigweed, Palmer",[8]; [30],0
same,"Plant response rating, Pigweed, Palmer",[8]; [31],80
same,"Plant response rating, Pigweed, Palmer",[9]; [28],50
same,"Plant response rating, Pigweed, Palmer",[9]; [29],20
same,"Plant response rating, Ragweed",[10]; [28],0
same,"Plant response rating, Ragweed",[10]; [29],0
same,"Plant response rating, Blackgrass",[11]; [28],0
same,"Plant response rating, Blackgrass",[11]; [29],0
same,"Plant response rating, Barnyardgrass",[12],0
same,"Plant response rating, Ryegrass, Italian",[13]; [30],60
same,"Plant response rating, Ryegrass, Italian",[13]; [31],90
same,"Plant response rating, Goosegrass",[14]; [30],60
same,"Plant response rating, Goosegrass",[14]; [31],90
same,"Plant response rating, Oat, Wild",[15]; [28],0
same,"Plant response rating, Oat, Wild",[15]; [29],20
same,"Plant response rating, Kochia",[16]; [30],0
same,"Plant response rating, Kochia",[16]; [31],0
same,"Plant response rating, Ducksalad",[17],0
same,"Plant response rating, Soybean",[18]; [28],80
same,"Plant response rating, Soybean",[18]; [29],100
same,"Plant response rating, Wheat",[19]; [30],0
same,"Plant response rating, Wheat",[19]; [31],10
same,"Plant response rating, Oat, Wild",[20]; [30],20
same,"Plant response rating, Oat, Wild",[20]; [31],90
same,"Plant response rating, Blackgrass",[21]; [30],10
same,"Plant response rating, Blackgrass",[21]; [31],40
same,"Plant response rating, Rice",[22],0
same,"Plant response rating, Foxtail, Giant",[23]; [30],60
same,"Plant response rating, Foxtail, Giant",[23]; [31],90
same,"Plant response rating, Foxtail, Giant",[24]; [28],10
same,"Plant response rating, Foxtail, Giant",[24]; [29],70
same,"Plant response rating, Soybean",[25]; [31],40
same,"Plant response rating, Ragweed",[26]; [30],0
same,"Plant response rating, Ragweed",[26]; [31],20
same,"Plant response rating, Corn",[27]; [28],10
same,"Plant response rating, Corn",[27]; [29],30

# From patent publication US20260262643A1, “HERBICIDAL BENZOXAZINES” (FMC CORPORATION, priority 2022, published 2026)
